Data published in patent US20240166770A1, “COMPOSITIONS AND METHODS FOR INHIBITION OF CELL-PENETRATING ANTIBODIES” (Yale University, priority 2019, published 2024).
Like-named read-outs stand apart in the source and are kept apart here.

T1: ENT2 (Homo sapiens, UniProt Q14542)
T1 sequence (Q14542 1-456): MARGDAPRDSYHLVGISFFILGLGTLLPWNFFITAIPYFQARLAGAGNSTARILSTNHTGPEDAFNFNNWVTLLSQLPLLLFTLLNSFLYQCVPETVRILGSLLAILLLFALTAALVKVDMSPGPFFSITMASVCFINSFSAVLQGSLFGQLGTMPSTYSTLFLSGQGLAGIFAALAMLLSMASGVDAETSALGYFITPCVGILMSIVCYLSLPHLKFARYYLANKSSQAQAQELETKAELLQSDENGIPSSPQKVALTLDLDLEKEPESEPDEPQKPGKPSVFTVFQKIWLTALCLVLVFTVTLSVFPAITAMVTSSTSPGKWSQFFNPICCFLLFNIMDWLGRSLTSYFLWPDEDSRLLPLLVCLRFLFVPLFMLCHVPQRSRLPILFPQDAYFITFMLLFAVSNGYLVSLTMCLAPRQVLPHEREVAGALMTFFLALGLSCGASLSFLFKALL

T2: hENT4 (Homo sapiens, UniProt Q7RTT9)
T2 sequence (Q7RTT9 1-530): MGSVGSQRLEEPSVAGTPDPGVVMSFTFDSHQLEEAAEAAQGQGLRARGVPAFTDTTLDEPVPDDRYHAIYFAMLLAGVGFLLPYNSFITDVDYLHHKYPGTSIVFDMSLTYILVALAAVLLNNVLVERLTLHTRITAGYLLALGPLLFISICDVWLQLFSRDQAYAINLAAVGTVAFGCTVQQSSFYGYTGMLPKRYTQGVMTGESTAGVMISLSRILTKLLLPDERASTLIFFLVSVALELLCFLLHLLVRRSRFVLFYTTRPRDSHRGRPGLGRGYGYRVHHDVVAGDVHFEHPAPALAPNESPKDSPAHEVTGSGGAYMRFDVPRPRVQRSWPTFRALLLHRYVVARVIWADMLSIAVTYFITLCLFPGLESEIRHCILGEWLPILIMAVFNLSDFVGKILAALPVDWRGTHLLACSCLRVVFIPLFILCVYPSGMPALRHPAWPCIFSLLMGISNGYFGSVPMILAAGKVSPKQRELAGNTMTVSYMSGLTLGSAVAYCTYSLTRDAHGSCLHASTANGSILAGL

B1: h3E10 di-scFv: modified, humanized 3E10 lupus autoantibody di-scFv, SEQ ID NO:70, Variant 13 (protein)
scFv: DIQMTQSPSSLSASLGDRATITCRASKTVSTSSYSYMHWYQQKPGQPPKLLIKYASYLESGVPSRFSGSGSGTDFTLTISSLQPEDAATYYCQHSREFPWTFGGGTKVEIKRADAAPGGGGSGGGGSGGGGSEVQLVESGGGLVQPGGSLRLSCAASGFTFSNYGMHWVRQAPGKGLEWVSYISSGSSTIYYADSVKGRFTISRDNAKNSLYLQMNSLRAEDTAVYYCARRGLLLDYWGQGTTVTVSSASTKGPSVFPLAPLESSGSDIQMTQSPSSLSASLGDRATITCRASKTVSTSSYSYMHWYQQKPGQPPKLLIKYASYLESGVPSRFSGSGSGTDFTLTISSLQPEDAATYYCQHSREFPWTFGGGTKVEIKRADAAPGGGGSGGGGSGGGGSEVQLVESGGGLVQPGGSLRLSCAASGFTFSNYGMHWVRQAPGKGLEWVSYISSGSSTIYYADSVKGRFTISRDNAKNSLYLQMNSLRAEDTAVYYCARRGLLLDYWGQGTTVTVSS

How the values were obtained:
ENT2 [1] = biological target: T1, ENT2; conditions: Ward et al. 2000; SenGupta et al. 2002; cited from earlier work
hENT4 [2] = biological target: T2, hENT4; conditions: cited from earlier work
ENT2 [3] = biological target: T1, ENT2; conditions: Table 1, different ring systems at the 4- and 8-positions; cited from earlier work
hENT4 [4] = biological target: T2, hENT4; conditions: Table 1, different ring systems at the 4- and 8-positions; cited from earlier work
ENT2 [5] = biological target: T1, ENT2; conditions: ENT2-dependent transduction; cited from earlier work
[6] = tested on: hCMEC/D3 Transwell filter BBB model; assay: Transwell filter model of the human BBB (hCMEC/D3 and normal human astrocytes); assay type: in vitro ADME; conditions: basolateral chamber one hour after addition to apical chamber, western blot
[7] = tested on: TNBC brain metastases (231-BR cells); assay type: in vivo; conditions: 20 mg/kg tail vein 3x/week for 4 weeks
Description: TNBC brain metastases were generated in mice by intracardiac injection of luciferase-expressing 231-BR cells. Mice were treated with tail vein injection of control (PBS) or h3E10 di-scFv (20 mg/kg) 3×/week for 4 weeks, and brain metastases were tracked by IVIS.

Molecule	IC50 (ENT2 [1])	inhibition of hENT4 (in words) (hENT4 [2])	IC50 (ENT2 [3])	IC50 (hENT4 [4])	inhibition of intranuclear transduction of mouse 3E10 Fv (ENT2 [5])	transport of h3E10 di-scFv across Transwell filter BBB model [6]	growth of brain metastases (radiance by IVIS) [7]	median survival ([7]; control 38 days, P<0.02)
O=[N+]([O-])c1ccc(CSc2ncnc3c2ncn3[C@@H]2O[C@H](CO)[C@@H](O)[C@H]2O)cc1 [NBMPR]	2800 nM	moderate inhibitors	1350 nM	2330 nM	inhibited	–	–	–
B1	–	–	–	–	–	crosses	Suppresses Tumor Growth	52 days
